For one assay, the system named is Foxp3. Briefly: Foxp3 expression by qPCR during conversion of CD4+CD25− T cells to T regs. The format is cell-based, mouse. As to conditions: 50 μM, FIG. 5. As to the method: Taken together, these observations indicate that these compounds effectively suppress the KLF10 target gene Foxp3, a critical regulator of T reg cell differentiation.^28
T cells were suspended in TRIzol® reagent (Invitrogen), and total RNA was isolated according to the manufacturer's instructions. Reverse transcriptions were performed by using the Reverse Transcription Kit and QuantiTect SYBR Green reverse transcription-PCR kit from Qiagen for quantitative real-time quantitative PCR analysis on a Mx3000P real-time PCR system (Stratagene) following the manufacturer's instructions. Primers were used to detect mouse FoxP3 as previously described.^12
Mouse spleens were meshed through a cell strainer into Phosphate Buffered Saline (PBS) with 2% Fetal Bovine Serum and 1% Penicillin/Streptomycin, and cells were collected by spinning at 1000 rpm for 10 min. CD4+CD25− T cells were purified by using CD4+CD25+ T cell isolation kit (Miltenyi Biotec) according to the manufacturer's instructions. Briefly, cells were incubated with Biotin-conjugated antibodies, followed by anti-biotin microbeads and PE-conjugated anti-CD25 antibody for 30 min on ice with gentle shaking. […] For flow cytometry, cells were stained with anti-mouse CD25 Alexa Fluo®488 (eBioscience) and analyzed by using multicolor FACS (ARIA; BD Biosciences) as previously described.^12
(In qPCR the cycle at which signal appears reflects the starting amount.)

The subject of a further assay is CD4+CD25− T cells. Nature of the assay: T regulatory cell differentiation assay, flow cytometry. It is filed as cell-based, mouse. As to conditions: 3 days culture, FIG. 4A-4C. As to the method: Mouse spleens were meshed through a cell strainer into Phosphate Buffered Saline (PBS) with 2% Fetal Bovine Serum and 1% Penicillin/Streptomycin, and cells were collected by spinning at 1000 rpm for 10 min. CD4+CD25− T cells were purified by using CD4+CD25+ T cell isolation kit (Miltenyi Biotec) according to the manufacturer's instructions. Briefly, cells were incubated with Biotin-conjugated antibodies, followed by anti-biotin microbeads and PE-conjugated anti-CD25 antibody for 30 min on ice with gentle shaking. Mixtures were loaded into pre-washed LD columns in the Magnetic field, and CD4+ cells were collected and then incubated with anti-PE microbeads. Mixtures were loaded into pre-washed MS columns in the magnetic field to collect CD4+CD25− T cells (non-bound cell fraction). Cells were plated into 12-well plates pre-coated with 1 μg/mL anti-CD3e (eBioscience) overnight in RPMI1640 Medium with 10% FBS, 1% Penicillin/Streptomycin, 1% non-essential amino acids, and 2-mercaptoethanol, 1 μg/mL anti-CD28 (BD Biosciences), and 1 ng/mL TGF-β1 (Peprotech). Cells were cultured at 37° C. up to five days for the conversion of CD4+CD25− T cells to CD4+CD25+ T regs. For flow cytometry, cells were stained with anti-mouse CD25 Alexa Fluo®488 (eBioscience) and analyzed by using multicolor FACS (ARIA; BD Biosciences) as previously described.^12

The next assay concerns the target T1, GLI (Homo sapiens, UniProt P08151).
T1 construct: host or cells: HEK293 (transfected)
T1 sequence (P08151 1-1106): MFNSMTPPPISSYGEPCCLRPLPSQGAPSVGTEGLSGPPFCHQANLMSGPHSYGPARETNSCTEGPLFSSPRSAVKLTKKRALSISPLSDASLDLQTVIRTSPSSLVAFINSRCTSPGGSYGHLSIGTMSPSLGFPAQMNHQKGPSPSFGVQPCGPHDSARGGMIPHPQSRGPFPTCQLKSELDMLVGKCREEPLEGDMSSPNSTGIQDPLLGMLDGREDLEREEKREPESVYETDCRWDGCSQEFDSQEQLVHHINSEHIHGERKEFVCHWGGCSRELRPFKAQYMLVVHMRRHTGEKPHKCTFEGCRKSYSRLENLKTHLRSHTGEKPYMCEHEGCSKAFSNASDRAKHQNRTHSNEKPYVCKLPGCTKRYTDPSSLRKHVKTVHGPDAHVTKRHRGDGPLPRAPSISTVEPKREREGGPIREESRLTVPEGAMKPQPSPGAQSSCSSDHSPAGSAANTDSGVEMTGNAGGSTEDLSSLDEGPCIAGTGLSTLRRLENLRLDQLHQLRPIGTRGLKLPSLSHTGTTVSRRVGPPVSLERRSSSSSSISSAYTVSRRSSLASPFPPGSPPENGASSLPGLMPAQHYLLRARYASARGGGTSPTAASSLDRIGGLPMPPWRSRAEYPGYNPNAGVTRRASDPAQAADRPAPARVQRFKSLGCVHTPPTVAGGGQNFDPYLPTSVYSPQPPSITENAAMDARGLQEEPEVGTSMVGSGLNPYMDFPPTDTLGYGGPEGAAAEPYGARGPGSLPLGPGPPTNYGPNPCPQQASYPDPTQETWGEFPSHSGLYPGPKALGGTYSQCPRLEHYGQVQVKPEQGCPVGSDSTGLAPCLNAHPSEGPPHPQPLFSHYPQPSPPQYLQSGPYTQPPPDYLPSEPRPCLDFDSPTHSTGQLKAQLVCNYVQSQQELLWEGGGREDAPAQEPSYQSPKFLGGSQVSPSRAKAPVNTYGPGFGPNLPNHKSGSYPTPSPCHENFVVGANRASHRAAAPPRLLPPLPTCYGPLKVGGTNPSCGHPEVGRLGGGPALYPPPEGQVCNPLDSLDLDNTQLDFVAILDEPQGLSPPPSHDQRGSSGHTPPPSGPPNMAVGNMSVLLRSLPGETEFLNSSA
As to conditions: 30 μM, transfected HEK293 cells; cited from earlier work.

Assay [1] has as its target T2, KLF10 (Homo sapiens, UniProt Q13118).
T2 sequence (Q13118 1-480): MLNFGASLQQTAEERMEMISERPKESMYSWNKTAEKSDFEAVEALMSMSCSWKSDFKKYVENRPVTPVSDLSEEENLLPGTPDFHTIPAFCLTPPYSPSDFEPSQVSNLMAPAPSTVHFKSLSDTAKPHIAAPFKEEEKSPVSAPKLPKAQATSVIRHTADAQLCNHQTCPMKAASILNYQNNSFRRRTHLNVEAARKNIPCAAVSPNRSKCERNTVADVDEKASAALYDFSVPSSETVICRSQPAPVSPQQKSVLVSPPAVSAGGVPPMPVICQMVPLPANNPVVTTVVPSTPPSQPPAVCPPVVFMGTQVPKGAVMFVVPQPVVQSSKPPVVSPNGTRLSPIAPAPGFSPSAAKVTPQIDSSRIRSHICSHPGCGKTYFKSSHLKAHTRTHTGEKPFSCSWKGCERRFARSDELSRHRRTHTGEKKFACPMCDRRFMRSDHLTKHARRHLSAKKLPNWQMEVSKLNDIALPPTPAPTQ
Nature of the assay: KLF10 CACCC-luciferase reporter assay in transfected HeLa cells. As to conditions: for inhibition at 100 µM: HeLa. Also noted: host or cells: HeLa. It is filed as cell-based. On the technique in general: Reporter assays use an easily measured gene product as a stand-in for the process of interest.

Assay [2] has as its target T2, KLF10. Briefly: Gel mobility shift assay, KLF10 DNA-binding activity. Also noted: GST (N); purchased Novus Biologicals. On the procedure: The identified small molecule compounds were next examined for effects on KLF10 DNA-protein binding.
KLF10 recombinant protein was obtained from Novus Biologicals. Oligonucleotides 5′-[…] End-labeled oligos (1 μmol/L) were annealed in a buffer system with 10 mM Tris, 50 mM NaCl, pH 8.0 by heating at 95° C. for 5 min, then slowly cooled to 65° C. for 30 min incubation, and cooled to room temperature. […] Compounds were incubated with KLF10 in a reaction system for 4 hrs at room temperature, and then Biotin-labeled probes were added for a 1 hr incubation. Binding reactions were electrophoresed for 80 min at 100 volts on 6% polyacrylamide gel in 0.5×TBE. The binding reactions were transferred to nylon membranes at 100 volts for 45 min, and transferred DNA was cross-linked to membrane using an HL-2000 Hybrilinker instrument. Biotin-labeled DNAs were detected by chemiluminescence.

A further assay concerns prostate TRAMP-C2 tumors. Nature of the assay: In vivo prostate TRAMP-C2 tumor model. As to conditions: systemic delivery i.p. Day 3, 200 mg/kg, FIG. 13.
In the next assay the test system is B16 melanoma tumor. Nature of the assay: In vivo B16 melanoma tumor model. Also noted: species or system mice.
A further assay has as its system TGF-beta1. Briefly: TGF-beta1 expression in CD4+ T cells isolated from B16 melanoma tumors. The format is in vivo. As to conditions: mice injected i.p., FIG. 14.
Where [3] appears, read: KLF10 reporter activity, 100 μM, Table 1, read-out: % Inhibition at 100 μM (± sd).
The mark [4] stands for this setting: concentration that inhibited 50% of KLF10 reporter activity, Table 1, read-out: IC50.

This is an account of results in patent US11267807B2, “Use of small molecule inhibitors to KLF10 for modulation of T regulatory cells and cancer immunotherapy” (THE BRIGHAM AND WOMEN'S HOSPITAL, INC., priority 2015, dated 2022).

Read-outs that look alike come from different tables or passages of the source.

As to `Cc1sc2nc(SCC(=O)c3ccc(O)c(O)c3)nc(O)c2c1C` [#15-09], the “inhibition of Foxp3 expression” value in the assay on Foxp3 was found to be 90.8%. In addition, in the assay with CD4+CD25− T cells, the “inhibition of the percentage of CD4+CD25+ T regs” value stood at 29.2%.

As for `CN(C)c1ccccc1CN1CCCN(Cc2ccccc2N(C)C)C1c1ccncc1` [GANT61], on GLI, the GLI-induced transcription result is “inhibited”.

With `OC1=CN=C(O)/C1=C/Nc1ccccc1O` [#82], on KLF10 [1] (setting [3]), the inhibition at 100 µM is 31.9 ± 0.4%.

As for `Cc1ccc(C(=O)c2cc(O)c(O)c([N+](=O)[O-])c2)cc1` [Tolcapone, reference compound], at KLF10 [1] (setting [3]), the inhibition at 100 µM is 71.8 ± 0.9%. Besides, at KLF10 [1] (setting [4]), the IC50 came to 50 µM.

Consider `Cc1ccc(OCC(=O)c2cc(C)c(O)cc2O)cc1` [#48], for which the inhibition at 8 µM at KLF10 [2] (8 μM) was 11%. In addition, the inhibition at 40 µM on KLF10 [2] (40 μM) is 25%. The “inhibition of Foxp3 expression” value in the assay on Foxp3 was 84.7%. In the assay with prostate TRAMP-C2 tumors, the “prostate TRAMP-C2 tumor inhibition” value is listed as “inhibits”. For the same compound, at KLF10 [1] (100 μM, FIG. 1C), the “induction of luciferase activity by exogenous KLF10 expression blocked” value is 96.6%. Also, the inhibition at 100 µM at KLF10 [1] (setting [3]) is 54.5 ± 8%; at KLF10 [1] (KLF10 reporter activity, 100 μM, Table 2, read-out: % Inhibition 100 μM (± sd)), 54.5 ± 8%. The IC50 came out at 112 µM on KLF10 [1] (KLF10 reporter activity, Table 2, read-out: IC50); 112 µM on KLF10 [1] (setting [4]); 112 µM on KLF10 [1] (non-linear regression of dose-response, FIG. 2A-2C, read-out: IC50 on KLF10 transcriptional activity). In addition, the “B16 melanoma tumor inhibition” value with B16 melanoma tumor (local injection Day 0, 20 mg/kg, FIG. 11) is on record as “inhibits”. The “B16 melanoma tumor model inhibition” value with B16 melanoma tumor (systemic delivery i.p. Day 3, 200 mg/kg, FIG. 12) was “inhibits”. Besides, the “TGF-beta1 expression in CD4+ T cells from tumors” value in the assay with TGF-beta1 is given as “reduced TGF-beta1 expression”. Moreover, in the assay on CD4+CD25− T cells, the “inhibition of the percentage of CD4+CD25+ T regs” value was found to be 57.4%.

As for `Cc1cc(C(=O)Nc2cnc(O)nc2O)ccc1[N+](=O)[O-]` [#77], the inhibition at 100 µM on KLF10 [1] (setting [3]) is 61.7 ± 2.6%. In addition, the concentration for half-maximal inhibition (IC50) on KLF10 [1] (setting [4]) worked out at 10 µM.

On to `c1cc(-c2sc(-c3ccncc3)c(-c3ccncc3)c2-c2ccncc2)ccn1` [GANT58], for which the GLI-induced transcription entry at GLI is on record as “inhibited”.

As usually defined, the inhibition is the change of the read-out against control, counted positive when it falls. In general, IC50 refers to the point on the concentration scale where inhibition reaches its midpoint.
